Assay results taken from EP4139472B1, “A METHOD FOR BIOTESTING OF A CONDENSED PHASE SUBSTANCES AND/OR MIXTURES ECOTOXICITY AND USE OF THE METHOD IN ECOTOXYCOLOGY” (Uniwersytet Jana Dlugosza w Czestochowie, priority 2020, dated 2021).
Values joined by “and” are separate entries in the source; they are usually repeats but may differ in a detail not shown here. Identical values can stand only once. Like-named read-outs stand apart in the source and are kept apart here.

Test system: A. fischeri bacteria
Assay: Bioluminescence inhibition of A. fischeri, modified Microtox Basic Solid Phase Test (synthetic sample with inert auxiliary substance)
Format: cell-based, Aliivibrio fischeri
Conditions: for EC50: Aliivibrio fischeri
Text: According to the invention, instead of a homogeneous solid sample with a relatively large mass (7 g in the Microtox® Basic Solid Phase Test), which is often unreachable for laboratory measurements of expensive or innovative materials, a so-called synthetic sample (as opposed to natural samples, i.e. soils and bottom sediments) of the same mass, containing the tested substance and an inert auxiliary substance (so called solid matrix) is being created. As a result, the synthetic sample simulates the soil contaminated with the tested substance. The synthetic sample prepared in such a way can be dispersed in the diluent and processed further according to the Microtox® Basic Solid Phase Test protocol. The Microtox® Basic Solid Phase Test protocol provides a series of steps covering, in turn: • suspending 7 g of the test sample in 35 ml of diluent in a 50 ml beaker, mixing for 10 min; • taking 2 mL of the suspension described above, while stirring it, into an appropriate cuvette; • performing a series of 1:2 dilutions of the test sample using the diluent; • reconstitution of freeze-dried Aliivibrio fischeri bacteria; • preparation and 15 min incubation of the reagent (10 µL of reconstituted bacteria and 0.5 mL of diluent); • bioluminescence measurement for time zero (bioluminescence before contact with the sample); • adding the reagent to each test sample and to the control cuvette; • incubation for 5 min, measurement of bioluminescence after 5 min incubation of bacteria with the sample; • incubation for another 10 min, measurement of bioluminescence after 15 min incubation of bacteria with the sample. The Microtox® protocol provides for the use of a 30-well incubator block maintaining a temperature of 15° C in the wells of the sample cuvettes and 5.5° C in the well of the bacterial suspension. According to the invention, a sample containing the substance to be test and an auxiliary substance is subjected to the procedure provided for in the Microtox® Basic Solid Phase Test. The pre-suspension is made by mixing the synthetic sample with a diluent (Microtox® Solid Phase Diluent: 3.5% aqueous NaCl solution) in appropriate proportions provided for in the measurement protocol, for example 7 g of the sample is mixed with 35 mL of diluent (weight/volume ratio of the sample to diluent is 1:5 g/mL), but after validation it is possible to use dispersions of any proportion (preferably from 1:4 g/mL to 1:6 g/mL) and scale (preferably samples weighing 3-10 g depending on capacity of the equipment used). In the case of hydrophobic chemicals, it is allowed to suspend them in a mixture of methanol with a diluent (e.g. 4% methanol solution) to increase their solubility. Then, the suspension is stirred in a tall beaker on a stirrer so that, as a result of mixing, the vortex always has the same, repeatable height, equal to half the height of the liquid level. A representative sample for further dilutions is drawn with an automatic pipette while the suspension is stirred, from half the depth of the suspension according to the Microtox® protocol. The further steps in the measurement (including but not limited to dilution, sampling, luminescence measurement, etc.) also follow the Microtox® Basic Solid Phase Test Procedure. […] A representative sample for further dilutions was taken from half the depth of the suspension without stirring interruption according to the Microtox® Basic Solid Phase Test protocol. […] The measurements were carried out in triplicate and the EC50 values were determined after 5 and 15 minutes of exposure. The obtained results with 95% confidence intervals, as well as the correlation coefficients are summarized below, in Table 2. Table 2. EC50 values [mg/L] obtained after 5 and 15 minutes exposure of A. fischeri bacteria to pure valsartan along with the corresponding confidence intervals.

SMILES | EC50 5 min (5 min exposure, 0.160 g pure valsartan + 6.840 g quartz sand in 35 mL diluent, single replicate, 95% confidence interval in brackets) | EC50 15 min (15 min exposure, 0.160 g pure valsartan + 6.840 g quartz sand in 35 mL diluent, single replicate, 95% confidence interval in brackets) | EC50 (5 min, 5 min exposure, 0.160 g pure valsartan + 6.840 g quartz sand in 35 mL diluent, single replicate, 95% confidence interval in brackets, read-out: EC50 5 min) | EC50 (5 min, 5 min exposure, pure valsartan + quartz sand, mean of three replicates, read-out: EC50 5 min, Mean) | EC50 (0.25 h, 15 min exposure, pure valsartan + quartz sand, mean of three replicates, read-out: EC50 15 min, Mean) | EC50 5 min (5 min exposure, 0.200 g losartan potassium + 5.600 g quartz sand in 35 mL diluent (1:[…]), single replicate, 95% confidence interval in brackets) | EC50 15 min (15 min exposure, 0.200 g losartan potassium + 5.600 g quartz sand in 35 mL diluent (1:[…]), single replicate, 95% confidence interval in brackets) | EC50 (5 min, 5 min exposure, 0.200 g losartan potassium + 5.600 g quartz sand in 35 mL diluent (1:[…]), single replicate, 95% confidence interval in brackets, read-out: EC50 5 min) | EC50 (5 min, 5 min exposure, pure losartan potassium + quartz sand, mean of three replicates, read-out: EC50 5 min, Mean) | EC50 (0.25 h, 15 min exposure, 0.200 g losartan potassium + 5.600 g quartz sand in 35 mL diluent (1:[…]), single replicate, 95% confidence interval in brackets, read-out: EC50 15 min) | EC50 (0.25 h, 15 min exposure, pure losartan potassium + quartz sand, mean of three replicates, read-out: EC50 15 min, Mean)
CCCCC(=O)N(Cc1ccc(-c2ccccc2-c2nnn[nH]2)cc1)[C@H](C(=O)O)C(C)C [valsartan] | 172.06 (102.02-290.17) mg/L and 88.31 (83.90-92.91) mg/L | 341.70 (338.33-358.97) mg/L and 242.80 (103.75-568.26) mg/L and 120.04 (99.20-145.28) mg/L | 169 µg/mL | 143 ± 38.8 µg/mL | 235 ± 90.7 µg/mL |  |  |  |  |  | 
CCCCc1nc(Cl)c(CO)n1Cc1ccc(-c2ccccc2-c2nn[nH]n2)cc1 [losartan potassium] |  |  |  |  |  | 594.25 (343.09-1028.98) mg/L and 667.23 (490.17-908.21) mg/L | 694.10 (541.64-889.82) mg/L and 629.33 (172.93-2289.90) mg/L | 490 µg/mL | 584 ± 72.7 µg/mL | 654 µg/mL | 659 ± 26.7 µg/mL
